Assay results as given in patent US9113629B2, “4-amino-6-(4-substituted-phenyl)-picolinates and 6-amino-2-(4-substituted-phenyl)-pyrimidine-4-carboxylates and their use as herbicides” (DOW AGROSCIENCES LLC, priority 2013, dated 2015).
Read-outs that look alike come from different tables or passages of the source.

Columns and labels:
[1] = test system: Key Broadleaf Weed and Crop Species; assay: Post-emergent Test II herbicidal activity (Table 5); type: in vivo; details: post-emergence, 336 h, 14 days after application; for pest or weed control at 70 g/ha: application rate 70 g ai/ha; for pest or weed control at 140 g/ha: application rate 140 g ai/ha
Summary of the method: (§1)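 Plants grown in Metro-Mix 360 (pH 6.0–6.8) in a greenhouse (~15 h photoperiod, 23–29 °C day) to first or second true leaf stage, then sprayed with compound in acetone/DMSO/aqueous crop-oil-surfactant carrier at 187 L/ha by track sprayer. Injury visually scored 0–100% versus untreated plants after 14 d.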

[2] = test system: Key Grass and Sedge Weeds as well as Grass Crops; assay: Post-emergent Test II herbicidal activity (Table 6); type: in vivo; details: post-emergence, 336 h; for pest or weed control at 70 g/ha: 70 g ai/ha; for pest or weed control at 140 g/ha: 140 g ai/ha
Summary of the method: as §1

[3] = ABUTH: velvetleaf (Abutilon theophrasti), read-out: Visual Growth Reduction (%) 14 Days After Application, ABUTH
[4] = AMARE: redroot pigweed (Amaranthus retroflexus), read-out: Visual Growth Reduction (%) 14 Days After Application, AMARE
[5] = BRSNN: oilseed-rape, canola (Brassica napus), read-out: Visual Growth Reduction (%) 14 Days After Application, BRSNN
[6] = CHEAL: lambsquarters (Chenopodium album), read-out: Visual Growth Reduction (%) 14 Days After Application, CHEAL
[7] = EPHHL: wild poinsettia (Euphorbia heterophylla), read-out: Visual Growth Reduction (%) 14 Days After Application, EPHHL
[8] = HELAN: sunflower (Helianthus annuus), read-out: Visual Growth Reduction (%) 14 Days After Application, HELAN
[9] = VIOTR: wild pansy (Viola tricolor), read-out: Visual Growth Reduction (%) 14 Days After Application, VIOTR
[10] = CYPES: yellow nutsedge (Cyperus esculentus), read-out: Visual Growth Reduction (%) 14 Days After Application, CYPES
[11] = DIGSA: crabgrass (Digitaria sanguinalis), read-out: Visual Growth Reduction (%) 14 Days After Application, DIGSA
[12] = ECHCG: barnyardgrass (Echinochloa crus-galli), read-out: Visual Growth Reduction (%) 14 Days After Application, ECHCG
[13] = ORYSA: rice (Oryza sativa), crop, read-out: Visual Growth Reduction (%) 14 Days After Application, ORYSA
[14] = SETFA: giant foxtail (Setaria faberi), read-out: Visual Growth Reduction (%) 14 Days After Application, SETFA
[15] = SORVU: grain sorghum (Sorghum vulgare), read-out: Visual Growth Reduction (%) 14 Days After Application, SORVU
[16] = TRZSS (wheat, Triticum aestivum), crop, read-out: Visual Growth Reduction (%) 14 Days After Application, TRZSS
[17] = ZEAMX: maize, corn (Zea mays), crop, read-out: Visual Growth Reduction (%) 14 Days After Application, ZEAMX

melting point: 140 to 150 °C (dec.)
SMILES: Nc1c(F)c(-c2ccc(I)c(F)c2)nc(C(=O)O)c1Cl [Compound 157]
pest or weed control at 70 g/ha [1, 3]: 85 to 94% | pest or weed control at 140 g/ha [1, 3]: 85 to 94% | pest or weed control at 70 g/ha [1, 4]: 95 to 100% | pest or weed control at 140 g/ha [1, 4]: 95 to 100% | pest or weed control at 70 g/ha [1, 5]: 95 to 100% | pest or weed control at 140 g/ha [1, 5]: 95 to 100% | pest or weed control at 70 g/ha [1, 6]: 95 to 100% | pest or weed control at 140 g/ha [1, 6]: 95 to 100% | pest or weed control at 70 g/ha [1, 7]: 95 to 100% | pest or weed control at 140 g/ha [1, 7]: 95 to 100% | pest or weed control at 70 g/ha [1, 8]: 95 to 100% | pest or weed control at 140 g/ha [1, 8]: 95 to 100% | pest or weed control at 70 g/ha [1, 9]: 95 to 100% | pest or weed control at 140 g/ha [1, 9]: 95 to 100% | pest or weed control at 70 g/ha [2, 10]: 45 to 59% | pest or weed control at 140 g/ha [2, 10]: 45 to 59% | pest or weed control at 70 g/ha [2, 11]: 75 to 84% | pest or weed control at 140 g/ha [2, 11]: 85 to 94% | pest or weed control at 70 g/ha [2, 12]: 95 to 100% | pest or weed control at 140 g/ha [2, 12]: 95 to 100% | pest or weed control at 70 g/ha [2, 13]: 0 to 29% | pest or weed control at 140 g/ha [2, 13]: 0 to 29% | pest or weed control at 70 g/ha [2, 14]: 95 to 100% | pest or weed control at 140 g/ha [2, 14]: 95 to 100% | pest or weed control at 70 g/ha [2, 15]: 85 to 94% | pest or weed control at 140 g/ha [2, 15]: 95 to 100% | pest or weed control at 70 g/ha [2, 16]: 45 to 59% | pest or weed control at 140 g/ha [2, 16]: 45 to 59% | pest or weed control at 70 g/ha [2, 17]: 95 to 100% | pest or weed control at 140 g/ha [2, 17]: 95 to 100%
